Among the data in article PMC11364104, “Discovery of SARS-CoV-2 papain-like protease (PL^pro) inhibitors with efficacy in a murine infection model” (Science Advances, 2024) are IC50 values, retold here.

Molecules are shown by their SMILES. Where only a bound is given, the exact number is not on record here.

One experiment has as its target CYP2C8 (Homo sapiens, UniProt P10632). The experiment in a line: biochemical.
The target of a further experiment is CYP3A4 (Homo sapiens, UniProt P08684). Kind of experiment: biochemical.
Chain of CYP3A4 (P08684 whole entry): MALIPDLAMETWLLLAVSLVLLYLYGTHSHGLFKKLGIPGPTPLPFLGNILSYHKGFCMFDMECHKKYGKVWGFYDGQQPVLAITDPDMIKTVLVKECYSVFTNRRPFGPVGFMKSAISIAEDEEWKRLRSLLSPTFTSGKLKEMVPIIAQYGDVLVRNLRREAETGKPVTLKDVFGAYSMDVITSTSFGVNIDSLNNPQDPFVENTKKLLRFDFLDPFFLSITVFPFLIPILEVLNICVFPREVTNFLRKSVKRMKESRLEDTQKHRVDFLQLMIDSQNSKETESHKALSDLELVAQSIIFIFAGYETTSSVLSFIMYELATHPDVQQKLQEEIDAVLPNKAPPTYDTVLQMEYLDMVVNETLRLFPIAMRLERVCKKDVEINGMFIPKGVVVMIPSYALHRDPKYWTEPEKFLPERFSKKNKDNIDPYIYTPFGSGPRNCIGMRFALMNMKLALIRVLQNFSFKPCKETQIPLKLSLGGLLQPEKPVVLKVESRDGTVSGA

Chain of CYP2C8 (P10632 whole entry): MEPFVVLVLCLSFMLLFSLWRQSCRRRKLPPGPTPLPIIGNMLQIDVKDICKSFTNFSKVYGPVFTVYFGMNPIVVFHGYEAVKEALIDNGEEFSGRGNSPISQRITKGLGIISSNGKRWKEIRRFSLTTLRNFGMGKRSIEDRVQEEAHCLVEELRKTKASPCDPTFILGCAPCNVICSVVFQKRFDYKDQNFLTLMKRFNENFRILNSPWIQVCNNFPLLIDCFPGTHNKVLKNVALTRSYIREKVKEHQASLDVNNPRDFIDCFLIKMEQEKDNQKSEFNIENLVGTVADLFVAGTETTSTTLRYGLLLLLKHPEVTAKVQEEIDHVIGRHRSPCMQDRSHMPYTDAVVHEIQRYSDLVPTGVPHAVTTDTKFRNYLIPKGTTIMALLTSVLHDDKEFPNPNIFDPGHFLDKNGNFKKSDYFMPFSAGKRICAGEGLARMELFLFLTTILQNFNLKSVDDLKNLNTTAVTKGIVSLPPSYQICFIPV

Usually IC50 stands for the concentration that inhibits the measured activity by half. Lower therefore signals greater potency. In the case of `Cc1ccc(N2CCN(C)CC2)cc1C(=O)NC1(c2cc(-c3cnn(C)c3)nc3ccccc23)CC1` [Compound 4], the IC50 against CYP2C8 is 76.1 µM; against CYP3A4, over 30 µM.
